Literature values, collected in patent publication US20190314298A1, “COMPOSITIONS FOR PREVENTING AND RELIEVING HANGOVER & LIVER DAMAGE WHICH OCCUR DUE TO ALCOHOL CONSUMPTION” (priority 2018, published 2019).

conditions: biological activities listed in background table

Row | Compound | Activity
1 | CC(C)=CC(=O)CC(C)c1ccc(C)cc1 (centres unmarked) [Ar-turmerone] | snakebite
2 | O=C(C=Cc1ccc(O)cc1)CC(=O)C=Cc1ccc(O)cc1 [Bisdemethoxy curcumin] | antioxidant
3 | COc1cc(/C=C/C(=O)/C=C(O)\C=C\c2ccc(OC)c(OC)c2)ccc1O [Methylcurcumin] | L. amazonensis
4 | COc1cc(/C=C/C(=O)CC(=O)/C=C/c2ccc([O-])c(OC)c2)ccc1[O-].[Na+].[Na+] [Sodium curcuminate] | anti-inflammatory
5 | Demethoxy curcumin | antioxidant
